Key:
[1] = system: proline tolerant tripeptidyl peptidase (TRI083); assay: Hydrolysis of 33-mer gliadin peptide, LC-MS label-free quantification; assay type: biochemical; conditions: for Relative MS peak intensities: 24° C., pH 4.5
Experimental: The 33-mer of gliadin (alpha-2-gliadin) (aa56-88) H-[…]-OH (Zedira GmbH; D-64293 Darmstadt, Germany) C190H273N43O47 (MW=3911.46) (1 mg/ml; 0.26 mM) was incubated at 24° C. in the presence of proline tolerant tripeptidyl peptidase (0.01 mg/ml TRI083) in a total volume of 1000 ul buffer (pH=4.5) (the ratio substrate/enzyme 100:1, w/w). Aliquots (100 ul) of enzyme reaction were stopped with 20 ul 5% trifluoroacetic acid (TFA) after 0, 1, 3, 5, 10, 15 and 30 minutes, respectively. The samples were then transferred to new vials and analyzed on the LTQ Orbitrap mass spectrometer.
The LC-MS/MS data was manually annotated using GPMAW to calculate theoretical values of fragmentation.

H-Ala-Ala-Phe-pNA = assay: Low pH stability of tripeptidyl peptidases (pH 2.5, 40° C., 60 min), activity on H-Ala-Ala-Phe-pNA; assay type: biochemical; conditions: for OD410nm (Final): after pH 2.5, 40° C., 60 min; for OD410nm (Initial): without incubation at 40° C. for 60 min
Experimental: As requirements for utilization of the enzymes in feed for monogastric animals, the enzymes should be active at lower pH. For this reason the number of tripeptidyl peptidases has been tested with the reaction on synthetic substrate AAF (H-Ala-Ala-Phe-pNA. BACHEM, L-1095), at pH 2.5.
The tripeptide substrate AAF was prepared at 2.5 mg/ml in DMSO. Tripeptidyl peptidases were used as broth. The reaction mixture containing 2.5 μl enzyme and 90 μL glycine acetic acid-Tris buffer (each buffer components at 50 mM, pH 2.5) was prepared in 96 well incubation plates.
The incubation plate was mixed and incubated at 40° C. for 60 min. Then 50 μl 0.2M Mes-NaOH pH6.0 was added to each well, mixed at 600 rpm for 2 min. After that, 5 ul of the incubation mixture were taken to 96 well assay plate already filled with 85 μl 0.1M acetic acid buffer, pH4.0 and 5 μl 2.5 mg/ml AAF substrate solution.
The reaction mixture was stirred at 600 rpm for 2 min and read directly in a microplate reader (Molecular Devices, Denmark) at 410 nm at 30° C. every 30 second for 15 min.
To measure initial enzyme activity, similar procedure was performed except the step of enzyme incubation at 40° C. for 60 min.

Sequence of proline tolerant tripeptidyl peptidase (TRI083) (as listed by the source): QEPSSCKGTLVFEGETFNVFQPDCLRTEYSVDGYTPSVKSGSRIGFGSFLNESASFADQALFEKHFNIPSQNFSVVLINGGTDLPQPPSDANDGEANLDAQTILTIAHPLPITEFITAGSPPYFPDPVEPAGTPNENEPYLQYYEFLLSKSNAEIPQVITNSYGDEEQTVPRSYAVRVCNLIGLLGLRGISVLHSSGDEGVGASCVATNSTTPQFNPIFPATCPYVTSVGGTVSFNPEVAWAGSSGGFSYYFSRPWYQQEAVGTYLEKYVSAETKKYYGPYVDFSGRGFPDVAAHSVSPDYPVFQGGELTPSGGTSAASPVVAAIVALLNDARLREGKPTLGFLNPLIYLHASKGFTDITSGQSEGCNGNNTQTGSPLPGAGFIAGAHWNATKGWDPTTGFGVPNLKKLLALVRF

With “H-LQLQPFPQPQLPYPQPQLPYPQPQLPYPQPQPF-OH [Alpha-2 gliadin, 33-mer of gliadin (alpha-2-gliadin) (aa56-88), substrate, reference compound]” the “Relative MS peak intensities” value ([1]; 0 min with TRI083 0.01 mg/ml) was 100, the “Relative MS peak intensities” value ([1]; 1 min with TRI083 0.01 mg/ml) was 10 and the “Relative MS peak intensities” value ([1]; 3 min with TRI083 0.01 mg/ml) was 0. For the same molecule, the “Relative MS peak intensities” value ([1]; 5 min with TRI083 0.01 mg/ml) was 0, the “Relative MS peak intensities” value ([1]; 10 min with TRI083 0.01 mg/ml) was 0 and the “Relative MS peak intensities” value ([1]; 15 min with TRI083 0.01 mg/ml) was 0. The “Relative MS peak intensities” value ([1]; 30 min with TRI083 0.01 mg/ml) was 0, the “detectability of the intact peptide over time” value ([1]; TRI083 0.01 mg/ml, substrate/enzyme 100:1) was “not detectable after 3 min” and the “cleavage by proline tolerant tripeptidyl peptidase” value ([1]; proline in P3,P2,P1,P1′,P2′ and P3′ positions) was “consecutively into tri-peptides irrespective of a high proline content”.

LPY was tested, and the “Relative MS peak intensities” value ([1]; 0 min with TRI083 0.01 mg/ml) was 5, the “Relative MS peak intensities” value ([1]; 1 min with TRI083 0.01 mg/ml) was 21 and the “Relative MS peak intensities” value ([1]; 3 min with TRI083 0.01 mg/ml) was 46. For the same molecule, the “Relative MS peak intensities” value ([1]; 5 min with TRI083 0.01 mg/ml) was 62, the “Relative MS peak intensities” value ([1]; 10 min with TRI083 0.01 mg/ml) was 90 and the “Relative MS peak intensities” value ([1]; 15 min with TRI083 0.01 mg/ml) was 100. The “Relative MS peak intensities” value ([1]; 30 min with TRI083 0.01 mg/ml) was 94.

For LQL, the “Relative MS peak intensities” value ([1]; 0 min with TRI083 0.01 mg/ml) was 3, the “Relative MS peak intensities” value ([1]; 1 min with TRI083 0.01 mg/ml) was 91 and the “Relative MS peak intensities” value ([1]; 3 min with TRI083 0.01 mg/ml) was 88. The “Relative MS peak intensities” value ([1]; 5 min with TRI083 0.01 mg/ml) was 94, the “Relative MS peak intensities” value ([1]; 10 min with TRI083 0.01 mg/ml) was 94 and the “Relative MS peak intensities” value ([1]; 15 min with TRI083 0.01 mg/ml) was 100. The “Relative MS peak intensities” value ([1]; 30 min with TRI083 0.01 mg/ml) was 100.

In the case of PQL, the “Relative MS peak intensities” value ([1]; 0 min with TRI083 0.01 mg/ml) is reported as 8, the “Relative MS peak intensities” value ([1]; 1 min with TRI083 0.01 mg/ml) is reported as 21 and the “Relative MS peak intensities” value ([1]; 3 min with TRI083 0.01 mg/ml) is reported as 30. For the same molecule, the “Relative MS peak intensities” value ([1]; 5 min with TRI083 0.01 mg/ml) was 32, the “Relative MS peak intensities” value ([1]; 10 min with TRI083 0.01 mg/ml) was 42 and the “Relative MS peak intensities” value ([1]; 15 min with TRI083 0.01 mg/ml) was 58. The “Relative MS peak intensities” value ([1]; 30 min with TRI083 0.01 mg/ml) was 100.

In the case of PYP, the “Relative MS peak intensities” value ([1]; 0 min with TRI083 0.01 mg/ml) is reported as 4, the “Relative MS peak intensities” value ([1]; 1 min with TRI083 0.01 mg/ml) is reported as 7 and the “Relative MS peak intensities” value ([1]; 3 min with TRI083 0.01 mg/ml) is reported as 12. The “Relative MS peak intensities” value ([1]; 5 min with TRI083 0.01 mg/ml) was 15, the “Relative MS peak intensities” value ([1]; 10 min with TRI083 0.01 mg/ml) was 28 and the “Relative MS peak intensities” value ([1]; 15 min with TRI083 0.01 mg/ml) was 48. For the same molecule, the “Relative MS peak intensities” value ([1]; 30 min with TRI083 0.01 mg/ml) was 101.

With QPF the “Relative MS peak intensities” value ([1]; 0 min with TRI083 0.01 mg/ml) was 0, the “Relative MS peak intensities” value ([1]; 1 min with TRI083 0.01 mg/ml) was 4 and the “Relative MS peak intensities” value ([1]; 3 min with TRI083 0.01 mg/ml) was 55. The “Relative MS peak intensities” value ([1]; 5 min with TRI083 0.01 mg/ml) was 7, the “Relative MS peak intensities” value ([1]; 10 min with TRI083 0.01 mg/ml) was 129 and the “Relative MS peak intensities” value ([1]; 15 min with TRI083 0.01 mg/ml) was 26. For the same molecule, the “Relative MS peak intensities” value ([1]; 30 min with TRI083 0.01 mg/ml) was 100.

For “YPQPQLPYPQPQLPYPQPQPF [intermediate product of alpha-2-gliadin hydrolysis]”, the “Relative MS peak intensities” value ([1]; 0 min with TRI083 0.01 mg/ml) was 79, the “Relative MS peak intensities” value ([1]; 1 min with TRI083 0.01 mg/ml) was 100 and the “Relative MS peak intensities” value ([1]; 3 min with TRI083 0.01 mg/ml) was 52. The “Relative MS peak intensities” value ([1]; 5 min with TRI083 0.01 mg/ml) was 23, the “Relative MS peak intensities” value ([1]; 10 min with TRI083 0.01 mg/ml) was 23 and the “Relative MS peak intensities” value ([1]; 15 min with TRI083 0.01 mg/ml) was 23. The “Relative MS peak intensities” value ([1]; 30 min with TRI083 0.01 mg/ml) was 20.

B1: TRI050: tripeptidyl peptidase, SEQ ID No. 7/SEQ ID No. 34, used as broth (protein, listed as Fusarium graminearum)
chain 1: KSYSHHAEAPKGWKVDDTARVASTGKQQVFSIALTMQNVDQLESKLLDLSSPDSKNYGQWMSQKDVTTAFYPSKEAVSSVTKWLKSKGVKHYNVNGGFIDFALDVKGANALLDSDYQYYTKEGQTKLRTLSYSIPDDVAEHVQFVDPSTNFGGTLAFAPVTHPSRTLTERKNKPTKSTVDASCQTSITPSCLKQMYNIGDYTPKVESGSTIGFSSFLGESAIYSDVFLFEEKFGIPTQNFTTVLINNGTDDQNTAHKNFGEADLDAENIVGIAHPLPFTQYITGGSPPFLPNIDQPTAADNQNEPYVPFFRYLLSQKEVPAVVSTSYGDEEDSVPREYATMTCNLIGLLGLRGISVIFSSGDIGVGAGCLGPDHKTVEFNAIFPATCPYLTSVGGTVDVTPEIAWEGSSGGFSKYFPRPSYQDKAVKTYMKTVSKQTKKYYGPYTNWEGRGFPDVAGHSVSPNYEVIYAGKQSASGGTSAAAPVWAAIVGLLNDARFRAGKPSLGWLNPLVYKYGPKVLTDITGGYAIGCDGNNTQSGKPEPAGSGIVPGARWNATAGWDPVTGYGTPDFGKLKDLVLSF
chain 2: CQTSITPSCLKQMYNIGDYTPKVESGSTIGFSSFLGESAIYSDVFLFEEKFGIPTQNFTTVLINNGTDDQNTAHKNFGEADLDAENIVGIAHPLPFTQYITGGSPPFLPNIDQPTAADNQNEPYVPFFRYLLSQKEVPAVVSTSYGDEEDSVPREYATMTCNLIGLLGLRGISVIFSSGDIGVGAGCLGPDHKTVEFNAIFPATCPYLTSVGGTVDVTPEIAWEGSSGGFSKYFPRPSYQDKAVKTYMKTVSKQTKKYYGPYTNWEGRGFPDVAGHSVSPNYEVIYAGKQSASGGTSAAAPVWAAIVGLLNDARFRAGKPSLGWLNPLVYKYGPKVLTDITGGYAIGCDGNNTQSGKPEPAGSGIVPGARWNATAGWDPVTGYGTPDFGKLKDLVLS
modifications: used as fermentation broth
For B1, the “OD410nm (Final)” value (H-Ala-Ala-Phe-pNA) was 0.814, the “OD410nm (Final)” value (H-Ala-Ala-Phe-pNA; listed as TRI050.3) was 0.501 and the “OD410nm (Initial)” value (H-Ala-Ala-Phe-pNA) was 0.895. For the same molecule, the “OD410nm (Initial)” value (H-Ala-Ala-Phe-pNA; listed as TRI050.3) was 0.603.

B2: TRI053.1: tripeptidyl peptidase, SEQ ID No. 10/SEQ ID No. 37, used as broth (protein, listed as Aspergillus kawachii)
chain 1: VVHEKLAAVPSGWHHLEDAGSDHQISLSIALARKNLDQLESKLKDLSTPGESQYGQWLDQEEVDTLFPVASDKAVISWLRSANITHIARQGSLVNFATTVDKVNKLLNTTFAYYQRGSSQRLRTTEYSIPDDLVDSIDLISPTTFFGKEKTSAGLTQRSQKVDNHVAKRSNSSSCADTITLSCLKEMYNFGNYTPSASSGSKLGFASFLNESASYSDLAKFERLFNLPSQNFSVELINGGVNDQNQSTASLTEADLDVELLVGVGHPLPVTEFITSGEPPFIPDPDEPSAADNENEPYLQYYEYLLSKPNSALPQVISNSYGDDEQTVPEYYAKRVCNLIGLVGLRGISVLESSGDEGIGSGCRTTDGTNSTQFNPIFPATCPYVTAVGGTMSYAPEIAWEASSGGFSNYFERAWFQKEAVQNYLANHITNETKQYYSQFANFSGRGFPDVSAHSFEPSYEVIFYGARYGSGGTSAACPLFSALVGMLNDARLRAGKSTLGFLNPLLYSKGYKALTDVTAGQSIGCNGIDPQSDEAVAGAGIIPWAHWNATVGWDPVTGLGLPDFEKLRQLVLSL
chain 2: CADTITLSCLKEMYNFGNYTPSASSGSKLGFASFLNESASYSDLAKFERLFNLPSQNFSVELINGGVNDQNQSTASLTEADLDVELLVGVGHPLPVTEFITSGEPPFIPDPDEPSAADNENEPYLQYYEYLLSKPNSALPQVISNSYGDDEQTVPEYYAKRVCNLIGLVGLRGISVLESSGDEGIGSGCRTTDGTNSTQFNPIFPATCPYVTAVGGTMSYAPEIAWEASSGGFSNYFERAWFQKEAVQNYLANHITNETKQYYSQFANFSGRGFPDVSAHSFEPSYEVIFYGARYGSGGTSAACPLFSALVGMLNDARLRAGKSTLGFLNPLLYSKGYKALTDVTAGQSIGCNGIDPQSDEAVAGAGIIPWAHWNATVGWDPVTGLGLPDFEKLRQLVLS
modifications: used as fermentation broth
With B2 the “OD410nm (Final)” value (H-Ala-Ala-Phe-pNA) was 0.356 and the “OD410nm (Initial)” value (H-Ala-Ala-Phe-pNA) was 0.345.

Source: patent US20220174981A1, “PROLINE TOLERANT TRIPEPTIDYL PEPTIDASES AND USES THEREOF” (DuPont Nutrition Biosciences APS, priority 2014, published 2022)
